Reference: ChEMBL document CHEMBL3045472, “Synthesis and evaluation of some novel methylene-bridged aryl semicarbazones as potential anticonvulsant agents” (Med Chem Res, 2012)

These molecules were tested on Mus musculus (assay: Anticonvulsant activity in Mus musculus albino (mouse) assessed as decrease in pentylenetetrazole-induced total seizure time at 300 mg/kg, ip administered 30 min followed by pentylenetetrazole induction measured for 30 min (reference value: 9.9 +/- 1.3 secs)). Details: route intraperitoneal.
Assay type: functional

Compared with `O=C(CNc1ccc(Br)cc1)N/N=C/c1ccccc1[N+](=O)[O-]`, `O=C(CNc1ccc(Br)cc1)N/N=C/c1ccccc1Cl` is higher in Time: 2.8 s for the first, 4.5 s for the second.

Compared with `O=C(CNc1ccc(Br)cc1)N/N=C/c1ccc([N+](=O)[O-])cc1`, `O=C(CNc1ccc(Br)cc1)N/N=C/c1ccccc1O` is higher in Time: 3.8 s for the first, 6.6 s for the second.

First: CC(C)=NNC(=O)CNc1ccc(Br)cc1
Second: C/C(=N\NC(=O)CNc1ccc(Br)cc1)c1ccccc1
The Time of the first is higher: 3.3 s for the first, 3.1 s for the second.

What follows are molecules tested on Mus musculus (assay: Anticonvulsant activity in Mus musculus albino (mouse) assessed as decrease in pentylenetetrazole-induced total seizure time at 50 mg/kg, ip administered 30 min followed by pentylenetetrazole induction measured for 30 min (reference value: 9.9 +/- 1.3 secs)). Details: route intraperitoneal.
Assay type: functional

Going from `O=C(CNc1ccc(Br)cc1)N/N=C/c1ccc([N+](=O)[O-])cc1` to `O=C(CNc1ccc(Br)cc1)N/N=C/c1ccccc1O`, the Time rises from 3.7 s to 8.6 s.

These molecules were tested on Mus musculus (assay: Anticonvulsant activity in Mus musculus albino (mouse) assessed as protection against pentylenetetrazole-induced seizure at 15 mg/kg, ip administered 30 min followed by pentylenetetrazole induction measured for 30 min relative to control). Details: route intraperitoneal.
Assay type: functional

`CCC1(c2ccccc2)C(=O)NC(=O)NC1=O` [PHENOBARBITAL] gave an Activity of 50%.

The molecules below were run on Mus musculus (assay: Anticonvulsant activity in pentylenetetrazole-induced Mus musculus albino (mouse) seizure model assessed as survival at 50 mg/kg, ip administered 30 min followed by pentylenetetrazole induction measured for 30 min relative to control). Details: 0.5 h, route intraperitoneal.
Assay type: functional

First: O=C(CNc1ccc(Br)cc1)N/N=C/c1ccc([N+](=O)[O-])cc1
Second: O=C(CNc1ccc(Br)cc1)N/N=C/c1ccccc1O
The survival at 50 mg/kg of the first is higher: 50% for the first, 25% for the second.

These molecules were tested on Mus musculus (assay: Anticonvulsant activity in pentylenetetrazole-induced Mus musculus albino (mouse) seizure model assessed as death time at 100 mg/kg, ip administered 30 min followed by pentylenetetrazole induction measured for 30 min (reference value: 416 +/- 58.2 secs)). Details: route intraperitoneal.
Assay type: functional

Going from `O=C(CNc1ccc(Br)cc1)N/N=C/c1ccccc1[N+](=O)[O-]` to `O=C(CNc1ccc(Br)cc1)N/N=C/c1ccccc1Cl`, the Time falls from 897 s to 885 s.

First: O=C(CNc1ccc(Br)cc1)N/N=C/c1ccc([N+](=O)[O-])cc1
Second: O=C(CNc1ccc(Br)cc1)N/N=C/c1ccccc1O
The Time of the first is lower: 1400 s for the first, 1800 s for the second.

Going from `CC(C)=NNC(=O)CNc1ccc(Br)cc1` to `C/C(=N\NC(=O)CNc1ccc(Br)cc1)c1ccccc1`, the Time rises from 945 s to 1577 s.

The molecules below were run on Mus musculus (assay: Anticonvulsant activity in pentylenetetrazole-induced Mus musculus albino (mouse) seizure model assessed as death time at 50 mg/kg, ip administered 30 min followed by pentylenetetrazole induction measured for 30 min (reference value: 416 +/- 58.2 secs)). Details: route intraperitoneal.
Assay type: functional

Compared with `O=C(CNc1ccc(Br)cc1)N/N=C/c1ccc([N+](=O)[O-])cc1`, `O=C(CNc1ccc(Br)cc1)N/N=C/c1ccccc1O` is lower in Time: 1122 s for the first, 832 s for the second.

Each molecule was assayed on Mus musculus (assay: Anticonvulsant activity in Mus musculus albino (mouse) assessed as increase in onset of pentylenetetrazole-induced seizure at 15 mg/kg, ip administered 30 min followed by pentylenetetrazole induction measured for 30 min (reference value: 184 +/- 32 secs)). Details: route intraperitoneal.
Assay type: functional

`CCC1(c2ccccc2)C(=O)NC(=O)NC1=O` [PHENOBARBITAL] showed a Time of 1088 s.

Each molecule was assayed on Mus musculus (assay: Anticonvulsant activity in Mus musculus albino (mouse) assessed as increase in onset of pentylenetetrazole-induced seizure at 50 mg/kg, ip administered 30 min followed by pentylenetetrazole induction measured for 30 min (reference value: 184 +/- 32 secs)). Details: route intraperitoneal.
Assay type: functional

Compared with `O=C(CNc1ccc(Br)cc1)N/N=C/c1ccc([N+](=O)[O-])cc1`, `O=C(CNc1ccc(Br)cc1)N/N=C/c1ccccc1O` is lower in Time: 596 s for the first, 562 s for the second.

Each molecule was assayed on Mus musculus (assay: Anticonvulsant activity in Mus musculus albino (mouse) assessed as increase in onset of pentylenetetrazole-induced seizure at 100 mg/kg, ip administered 30 min followed by pentylenetetrazole induction measured for 30 min (reference value: 184 +/- 32 secs)). Details: route intraperitoneal.
Assay type: functional

Compared with `O=C(CNc1ccc(Br)cc1)N/N=C/c1ccccc1[N+](=O)[O-]`, `O=C(CNc1ccc(Br)cc1)N/N=C/c1ccccc1Cl` is higher in Time: 144 s for the first, 403 s for the second.

First: O=C(CNc1ccc(Br)cc1)N/N=C/c1ccc([N+](=O)[O-])cc1
Second: O=C(CNc1ccc(Br)cc1)N/N=C/c1ccccc1O
The Time of the first is lower: 640 s for the first, 724 s for the second.

Compared with `CC(C)=NNC(=O)CNc1ccc(Br)cc1`, `C/C(=N\NC(=O)CNc1ccc(Br)cc1)c1ccccc1` is higher in Time: 224 s for the first, 498 s for the second.

Each molecule was assayed on Mus musculus (assay: Anticonvulsant activity in pentylenetetrazole-induced Mus musculus albino (mouse) seizure model assessed as death time at 15 mg/kg, ip administered 30 min followed by pentylenetetrazole induction measured for 30 min (reference value: 416 +/- 58.2 secs)). Details: route intraperitoneal.
Assay type: functional

`CCC1(c2ccccc2)C(=O)NC(=O)NC1=O` [PHENOBARBITAL] was tested, and the Time was 1800 s.

Each molecule was assayed on Mus musculus (assay: Anticonvulsant activity in Mus musculus albino (mouse) assessed as protection against pentylenetetrazole-induced seizure at 50 mg/kg, ip administered 30 min followed by pentylenetetrazole induction measured for 30 min relative to control). Details: route intraperitoneal.
Assay type: functional

First: O=C(CNc1ccc(Br)cc1)N/N=C/c1ccc([N+](=O)[O-])cc1
Second: O=C(CNc1ccc(Br)cc1)N/N=C/c1ccccc1O
The Activity of the first is lower: 16% for the first, 25% for the second.

The molecules below were run on Mus musculus (assay: Anticonvulsant activity in pentylenetetrazole-induced Mus musculus albino (mouse) seizure model assessed as survival at 300 mg/kg, ip administered 30 min followed by pentylenetetrazole induction measured for 30 min relative to control). Details: 0.5 h, route intraperitoneal.
Assay type: functional

Compared with `O=C(CNc1ccc(Br)cc1)N/N=C/c1ccccc1[N+](=O)[O-]`, `O=C(CNc1ccc(Br)cc1)N/N=C/c1ccccc1Cl` is lower in survival at 300 mg/kg: 33% for the first, 29% for the second.

Going from `O=C(CNc1ccc(Br)cc1)N/N=C/c1ccc([N+](=O)[O-])cc1` to `O=C(CNc1ccc(Br)cc1)N/N=C/c1ccccc1O`, the survival at 300 mg/kg rises from 62% to 100%.

Compared with `CC(C)=NNC(=O)CNc1ccc(Br)cc1`, `C/C(=N\NC(=O)CNc1ccc(Br)cc1)c1ccccc1` is lower in survival at 300 mg/kg: 64% for the first, 50% for the second.

What follows are molecules tested on Mus musculus (assay: Anticonvulsant activity in Mus musculus albino (mouse) assessed as decrease in pentylenetetrazole-induced total seizure time at 100 mg/kg, ip administered 30 min followed by pentylenetetrazole induction measured for 30 min (reference value: 9.9 +/- 1.3 secs)). Details: route intraperitoneal.
Assay type: functional

Going from `O=C(CNc1ccc(Br)cc1)N/N=C/c1ccccc1[N+](=O)[O-]` to `O=C(CNc1ccc(Br)cc1)N/N=C/c1ccccc1Cl`, the Time falls from 11 s to 6.4 s.

First: O=C(CNc1ccc(Br)cc1)N/N=C/c1ccc([N+](=O)[O-])cc1
Second: O=C(CNc1ccc(Br)cc1)N/N=C/c1ccccc1O
The Time of the first is lower: 6.1 s for the first, 7.7 s for the second.

Compared with `CC(C)=NNC(=O)CNc1ccc(Br)cc1`, `C/C(=N\NC(=O)CNc1ccc(Br)cc1)c1ccccc1` is higher in Time: 10 s for the first, 11 s for the second.

These molecules were tested on Mus musculus (assay: Anticonvulsant activity in pentylenetetrazole-induced Mus musculus albino (mouse) seizure model assessed as survival at 100 mg/kg, ip administered 30 min followed by pentylenetetrazole induction measured for 30 min relative to control). Details: 0.5 h, route intraperitoneal.
Assay type: functional

First: O=C(CNc1ccc(Br)cc1)N/N=C/c1ccccc1[N+](=O)[O-]
Second: O=C(CNc1ccc(Br)cc1)N/N=C/c1ccccc1Cl
The survival at 100 mg/kg of the first is higher: 38% for the first, 25% for the second.

Compared with `O=C(CNc1ccc(Br)cc1)N/N=C/c1ccc([N+](=O)[O-])cc1`, `O=C(CNc1ccc(Br)cc1)N/N=C/c1ccccc1O` is higher in survival at 100 mg/kg: 62% for the first, 100% for the second.

First: CC(C)=NNC(=O)CNc1ccc(Br)cc1
Second: C/C(=N\NC(=O)CNc1ccc(Br)cc1)c1ccccc1
The survival at 100 mg/kg of the first is lower: 25% for the first, 86% for the second.

These molecules were tested on Mus musculus (assay: Anticonvulsant activity in Mus musculus albino (mouse) assessed as protection against pentylenetetrazole-induced seizure at 300 mg/kg, ip administered 30 min followed by pentylenetetrazole induction measured for 30 min relative to control). Details: route intraperitoneal.
Assay type: functional

Going from `O=C(CNc1ccc(Br)cc1)N/N=C/c1ccccc1[N+](=O)[O-]` to `O=C(CNc1ccc(Br)cc1)N/N=C/c1ccccc1Cl`, the Activity falls from 33% to 14%.

`O=C(CNc1ccc(Br)cc1)N/N=C/c1ccc([N+](=O)[O-])cc1` and `O=C(CNc1ccc(Br)cc1)N/N=C/c1ccccc1O` are the same in Activity: 38% for the first, 38% for the second.

Compared with `CC(C)=NNC(=O)CNc1ccc(Br)cc1`, `C/C(=N\NC(=O)CNc1ccc(Br)cc1)c1ccccc1` is lower in Activity: 45% for the first, 38% for the second.

Each molecule was assayed on Mus musculus (assay: Anticonvulsant activity in pentylenetetrazole-induced Mus musculus albino (mouse) seizure model assessed as survival at 15 mg/kg, ip administered 30 min followed by pentylenetetrazole induction measured for 30 min relative to control). Details: 0.5 h, route intraperitoneal.
Assay type: functional

In the case of `CCC1(c2ccccc2)C(=O)NC(=O)NC1=O` [PHENOBARBITAL], the survival at 15 mg/kg was 100%.

The molecules below were run on Mus musculus (assay: Anticonvulsant activity in Mus musculus albino (mouse) assessed as increase in onset of pentylenetetrazole-induced seizure at 300 mg/kg, ip administered 30 min followed by pentylenetetrazole induction measured for 30 min (reference value: 184 +/- 32 secs)). Details: route intraperitoneal.
Assay type: functional

First: O=C(CNc1ccc(Br)cc1)N/N=C/c1ccccc1[N+](=O)[O-]
Second: O=C(CNc1ccc(Br)cc1)N/N=C/c1ccccc1Cl
The Time of the first is higher: 1073 s for the first, 514 s for the second.

Going from `O=C(CNc1ccc(Br)cc1)N/N=C/c1ccc([N+](=O)[O-])cc1` to `O=C(CNc1ccc(Br)cc1)N/N=C/c1ccccc1O`, the Time rises from 809 s to 884 s.

First: CC(C)=NNC(=O)CNc1ccc(Br)cc1
Second: C/C(=N\NC(=O)CNc1ccc(Br)cc1)c1ccccc1
The Time of the first is higher: 1098 s for the first, 915 s for the second.

Each molecule was assayed on Mus musculus (assay: Anticonvulsant activity in Mus musculus albino (mouse) assessed as protection against pentylenetetrazole-induced seizure at 100 mg/kg, ip administered 30 min followed by pentylenetetrazole induction measured for 30 min relative to control). Details: route intraperitoneal.
Assay type: functional

`O=C(CNc1ccc(Br)cc1)N/N=C/c1ccccc1[N+](=O)[O-]` and `O=C(CNc1ccc(Br)cc1)N/N=C/c1ccccc1Cl` are the same in Activity: 0% for the first, 0% for the second.

First: O=C(CNc1ccc(Br)cc1)N/N=C/c1ccc([N+](=O)[O-])cc1
Second: O=C(CNc1ccc(Br)cc1)N/N=C/c1ccccc1O
The Activity of the first is lower: 0% for the first, 25% for the second.

Going from `CC(C)=NNC(=O)CNc1ccc(Br)cc1` to `C/C(=N\NC(=O)CNc1ccc(Br)cc1)c1ccccc1`, the Activity rises from 0% to 14%.

Each molecule was assayed on Mus musculus (assay: Anticonvulsant activity in Mus musculus albino (mouse) assessed as decrease in pentylenetetrazole-induced total seizure time at 15 mg/kg, ip administered 30 min followed by pentylenetetrazole induction measured for 30 min (reference value: 9.9 +/- 1.3 secs)). Details: route intraperitoneal.
Assay type: functional

Molecule `CCC1(c2ccccc2)C(=O)NC(=O)NC1=O` [PHENOBARBITAL] has a Time of 2.2 s.

What follows are molecules tested on Mus musculus (assay: Anticonvulsant activity in pentylenetetrazole-induced Mus musculus albino (mouse) seizure model assessed as death time at 300 mg/kg, ip administered 30 min followed by pentylenetetrazole induction measured for 30 min (reference value: 416 +/- 58.2 secs)). Details: route intraperitoneal.
Assay type: functional

Compared with `O=C(CNc1ccc(Br)cc1)N/N=C/c1ccccc1[N+](=O)[O-]`, `O=C(CNc1ccc(Br)cc1)N/N=C/c1ccccc1Cl` is lower in Time: 1265 s for the first, 781 s for the second.

Compared with `O=C(CNc1ccc(Br)cc1)N/N=C/c1ccc([N+](=O)[O-])cc1`, `O=C(CNc1ccc(Br)cc1)N/N=C/c1ccccc1O` is higher in Time: 1456 s for the first, 1800 s for the second.

First: CC(C)=NNC(=O)CNc1ccc(Br)cc1
Second: C/C(=N\NC(=O)CNc1ccc(Br)cc1)c1ccccc1
The Time of the first is higher: 1428 s for the first, 1161 s for the second.

These molecules were tested on Mus musculus (assay: Neurotoxicity in Mus musculus albino (mouse) assessed as minimal motor impairment at 15 mg/kg, ip measured for 180 secs by rotorod test). Details: in vivo, 0.05 h.
Assay type: toxicity, organism-based
Design: dose 15 mg/kg, route intraperitoneal

In the case of `CCC1(c2ccccc2)C(=O)NC(=O)NC1=O` [PHENOBARBITAL], the Activity was “Non-toxic”.
